# System: post-menopausal women
# Assay: Hot Flush Weekly Weighted Score, dose-finding study
# Assay type: in vivo
# Conditions: for Relative change in Hot Flush Weekly Weighted Score, LS adjusted mean: analysis with placebo grouped with 2.5 and 5 mg; for LS adjusted mean change from baseline in Hot Flush Weekly Weighted Score: 15 mg E4; for Covariate significance, covariate trt1, p_value, relative change in Hot Flush Weekly Weighted Score: 15 mg vs placebo grouped with 2.5 and 5 mg
# Method: Further, the terms “Hot Flush Weekly Weighted Score”, as used herein, corresponds to a score taking into account frequency and severity which is calculated by using the severity score (as calculated above): [(1× No. of mild VMS)+(2× No. of moderate VMS)+(3× No. of severe VMS)] during a 7 day period.
# Such a weighted score was for example used by Notelovitz et al. (“Initial 17β-Estradiol Dose for Treating Vasomotor Symptoms”; Obstetrics and Gynaecology, Vol. 95(5), May 2000, p. 726-731). This score was used to generate the data included in Example 1 further below, under section A. c) “Hot Flush Weekly Weighted Score”.
smiles,measurement,setting,value
"C[C@]12CC[C@@H]3c4ccc(O)cc4CC[C@H]3[C@@H]1[C@@H](O)[C@@H](O)[C@@H]2O [E4, 1,3,5 (10)-estratrien-3,15alpha,16alpha,17beta-tetrol]","Relative change (% from baseline) in Hot Flush Weekly Weighted Score, mean","10 mg E4 QD per os, week 9",−67%
same,Mean change from baseline in Hot Flush Weekly Weighted Score,"10 mg E4 QD per os, week 10",−109.514
same,"Relative change (% from baseline) in Hot Flush Weekly Weighted Score, mean","10 mg E4 QD per os, week 10",−68%
same,Mean change from baseline in Hot Flush Weekly Weighted Score,"10 mg E4 QD per os, week 11",−109.532
same,"Relative change (% from baseline) in Hot Flush Weekly Weighted Score, mean","10 mg E4 QD per os, week 11",−69%
same,Mean change from baseline in Hot Flush Weekly Weighted Score,"10 mg E4 QD per os, week 12",−111.764
same,"Relative change (% from baseline) in Hot Flush Weekly Weighted Score, mean","10 mg E4 QD per os, week 12",−70%
same,"Difference with placebo, LS adjusted mean, absolute change in Hot Flush Weekly Weighted Score","10 mg E4 vs placebo, week 4",−7.296
same,"Difference with placebo, LS adjusted mean, absolute change in Hot Flush Weekly Weighted Score","10 mg E4 vs placebo, week 12",−5.078
same,"Differences with placebo (including ineffective doses 2.5 mg and 5 mg), relative change in Hot Flush Weekly Weighted Score, LS adjusted mean","10.0 mg vs 0 mg, week 4",−0.06006
same,"Differences with placebo (including ineffective doses 2.5 mg and 5 mg), relative change in Hot Flush Weekly Weighted Score, p_value","10.0 mg vs 0 mg, week 4",0.4167
same,"Differences with placebo, relative change in weekly weighted score, p_value","10.0 mg vs 0 mg, week 4",0.6745
same,"Differences with placebo (including ineffective doses 2.5 mg and 5 mg), relative change in Hot Flush Weekly Weighted Score, LS adjusted mean","10.0 mg vs 0 mg, week 12",−0.08625
same,"Differences with placebo (including ineffective doses 2.5 mg and 5 mg), relative change in Hot Flush Weekly Weighted Score, p_value","10.0 mg vs 0 mg, week 12",0.1404
same,"Differences with placebo, relative change in weekly weighted score, p_value","10.0 mg vs 0 mg, week 12",0.7861
same,"Relative change (% from baseline) in Hot Flush Weekly Weighted Score, mean","10 mg, Week 12",−69%
same,"Relative change (% from baseline) in weekly weighted score, LS adjusted mean","10 mg, Week 12",−0.6994
same,"Relative change (% from baseline) in Hot Flush Weekly Weighted Score, mean","10 mg, week 0",0%
same,"Relative change (% from baseline) in Hot Flush Weekly Weighted Score, mean","10 mg, week 1",−20%
same,"Relative change (% from baseline) in Hot Flush Weekly Weighted Score, mean","10 mg, week 2",−34%
same,"Relative change (% from baseline) in Hot Flush Weekly Weighted Score, mean","10 mg, week 3",−46%
same,"Relative change (% from baseline) in Hot Flush Weekly Weighted Score, mean","10 mg, week 4",−53%
same,"Relative change (% from baseline) in weekly weighted score, LS adjusted mean","10 mg, week 4",−0.5419
same,"Relative change in Hot Flush Weekly Weighted Score, LS adjusted mean","10 mg, week 4",−0.5137
same,"Relative change (% from baseline) in Hot Flush Weekly Weighted Score, mean","10 mg, week 5",−57%
same,"Relative change (% from baseline) in Hot Flush Weekly Weighted Score, mean","10 mg, week 6",−62%
same,"Relative change (% from baseline) in Hot Flush Weekly Weighted Score, mean","10 mg, week 7",−64%
same,"Relative change (% from baseline) in Hot Flush Weekly Weighted Score, mean","10 mg, week 8",−66%
same,"Relative change (% from baseline) in Hot Flush Weekly Weighted Score, mean","10 mg, week 9",−66%
same,"Relative change (% from baseline) in Hot Flush Weekly Weighted Score, mean","10 mg, week 10",−68%
same,"Relative change (% from baseline) in Hot Flush Weekly Weighted Score, mean","10 mg, week 11",−68%
same,"Relative change in Hot Flush Weekly Weighted Score, LS adjusted mean","10 mg, week 12",−0.6776
same,LS adjusted mean change from baseline in Hot Flush Weekly Weighted Score,week 4,−106.3
same,LS adjusted mean change from baseline in Hot Flush Weekly Weighted Score,week 12,−130.6
same,Mean change from baseline in Hot Flush Weekly Weighted Score,"15 mg E4 QD per os, week 0",2.219
same,Mean change from baseline in Hot Flush Weekly Weighted Score,"15 mg E4 QD per os, week 1",−33.1745
same,"Relative change (% from baseline) in Hot Flush Weekly Weighted Score, mean","15 mg E4 QD per os, week 1",−19%
same,Mean change from baseline in Hot Flush Weekly Weighted Score,"15 mg E4 QD per os, week 2",−67.6983
same,"Relative change (% from baseline) in Hot Flush Weekly Weighted Score, mean","15 mg E4 QD per os, week 2",−43%
same,Mean change from baseline in Hot Flush Weekly Weighted Score,"15 mg E4 QD per os, week 3",−85.1915
same,"Relative change (% from baseline) in Hot Flush Weekly Weighted Score, mean","15 mg E4 QD per os, week 3",−56%
same,Mean change from baseline in Hot Flush Weekly Weighted Score,"15 mg E4 QD per os, week 4",−98.8329
same,"Relative change (% from baseline) in Hot Flush Weekly Weighted Score, mean","15 mg E4 QD per os, week 4",−66%
same,Mean change from baseline in Hot Flush Weekly Weighted Score,"15 mg E4 QD per os, week 5",−105.223
same,"Relative change (% from baseline) in Hot Flush Weekly Weighted Score, mean","15 mg E4 QD per os, week 5",−70%
same,Mean change from baseline in Hot Flush Weekly Weighted Score,"15 mg E4 QD per os, week 6",−110.268
same,"Relative change (% from baseline) in Hot Flush Weekly Weighted Score, mean","15 mg E4 QD per os, week 6",−74%
same,Mean change from baseline in Hot Flush Weekly Weighted Score,"15 mg E4 QD per os, week 7",−115.263
same,"Relative change (% from baseline) in Hot Flush Weekly Weighted Score, mean","15 mg E4 QD per os, week 7",−78%
same,Mean change from baseline in Hot Flush Weekly Weighted Score,"15 mg E4 QD per os, week 8",−115.656
same,"Relative change (% from baseline) in Hot Flush Weekly Weighted Score, mean","15 mg E4 QD per os, week 8",−78%
same,Mean change from baseline in Hot Flush Weekly Weighted Score,"15 mg E4 QD per os, week 9",−118.578
same,"Relative change (% from baseline) in Hot Flush Weekly Weighted Score, mean","15 mg E4 QD per os, week 9",−80%
same,Mean change from baseline in Hot Flush Weekly Weighted Score,"15 mg E4 QD per os, week 10",−116.853
same,"Relative change (% from baseline) in Hot Flush Weekly Weighted Score, mean","15 mg E4 QD per os, week 10",−79%
same,Mean change from baseline in Hot Flush Weekly Weighted Score,"15 mg E4 QD per os, week 11",−119.365
same,"Relative change (% from baseline) in Hot Flush Weekly Weighted Score, mean","15 mg E4 QD per os, week 11",−80%
same,Mean change from baseline in Hot Flush Weekly Weighted Score,"15 mg E4 QD per os, week 12",−121.777
same,"Relative change (% from baseline) in Hot Flush Weekly Weighted Score, mean","15 mg E4 QD per os, week 12",−82%
same,"Difference with placebo, LS adjusted mean, absolute change in Hot Flush Weekly Weighted Score","15 mg E4 vs placebo, week 4",−28.06
same,"Difference with placebo, LS adjusted mean, absolute change in Hot Flush Weekly Weighted Score","15 mg E4 vs placebo, week 12",−25.91
same,"Differences with placebo (including ineffective doses 2.5 mg and 5 mg), relative change in Hot Flush Weekly Weighted Score, LS adjusted mean","15.0 mg vs 0 mg, week 4",−0.1788
same,"Differences with placebo (including ineffective doses 2.5 mg and 5 mg), relative change in Hot Flush Weekly Weighted Score, p_value","15.0 mg vs 0 mg, week 4",0.00178
same,"Differences with placebo, relative change in weekly weighted score, p_value","15.0 mg vs 0 mg, week 4",0.0267
same,"Differences with placebo (including ineffective doses 2.5 mg and 5 mg), relative change in Hot Flush Weekly Weighted Score, LS adjusted mean","15.0 mg vs 0 mg, week 12",−0.177
same,"Differences with placebo (including ineffective doses 2.5 mg and 5 mg), relative change in Hot Flush Weekly Weighted Score, p_value","15.0 mg vs 0 mg, week 12",0.00097
same,"Differences with placebo, relative change in weekly weighted score, p_value","15.0 mg vs 0 mg, week 12",0.0276
same,"Relative change (% from baseline) in Hot Flush Weekly Weighted Score, mean","15 mg, Week 12",−81%
same,"Relative change (% from baseline) in weekly weighted score, LS adjusted mean","15 mg, Week 12",−0.8122
same,"Relative change (% from baseline) in Hot Flush Weekly Weighted Score, mean","15 mg, week 0",0%
same,"Relative change (% from baseline) in Hot Flush Weekly Weighted Score, mean","15 mg, week 1",−22%
same,"Relative change (% from baseline) in Hot Flush Weekly Weighted Score, mean","15 mg, week 2",−45%
same,"Relative change (% from baseline) in Hot Flush Weekly Weighted Score, mean","15 mg, week 3",−56%
same,"Relative change (% from baseline) in Hot Flush Weekly Weighted Score, mean","15 mg, week 4",−66%
same,"Relative change (% from baseline) in weekly weighted score, LS adjusted mean","15 mg, week 4",−0.6503
same,"Relative change in Hot Flush Weekly Weighted Score, LS adjusted mean","15 mg, week 4",−0.6324
same,"Relative change (% from baseline) in Hot Flush Weekly Weighted Score, mean","15 mg, week 5",−70%
same,"Relative change (% from baseline) in Hot Flush Weekly Weighted Score, mean","15 mg, week 6",−72%
same,"Relative change (% from baseline) in Hot Flush Weekly Weighted Score, mean","15 mg, week 7",−75%
same,"Relative change (% from baseline) in Hot Flush Weekly Weighted Score, mean","15 mg, week 8",−76%
same,"Relative change (% from baseline) in Hot Flush Weekly Weighted Score, mean","15 mg, week 9",−78%
same,"Relative change (% from baseline) in Hot Flush Weekly Weighted Score, mean","15 mg, week 10",−77%
same,"Relative change (% from baseline) in Hot Flush Weekly Weighted Score, mean","15 mg, week 11",−79%
same,"Relative change in Hot Flush Weekly Weighted Score, LS adjusted mean","15 mg, week 12",−0.7683
same,"Covariate significance, covariate trt1, p_value, relative change in Hot Flush Weekly Weighted Score","week 4, 10 mg",0.0037
same,"Covariate significance, covariate trt1, p_value, relative change in Hot Flush Weekly Weighted Score","week 12, 10 mg",0.0015

# Source: patent publication US11484539B2, “Compounds and their uses for alleviating menopause-associated symptoms” (Estetra SPRL, priority 2018, dated 2022)
